Test results as given in US20230416243A1, “Process for Preparing Heterocyclic Methanone Compounds and AZA-Bicyclo Intermediates Thereof” (ACTINOGEN MEDICAL LIMITED, priority 2020, published 2023).

Experiment: Solubility test in water
Format: physicochemical
Details: water at pH 4
Method: A saponification of A4 in aqueous conditions was conducted.

Solubility in water: soluble
Structure (SMILES): O=C(O)c1csc(-c2cn[nH]c2)c1 [Compound A5]
